Substitutions are numbered along the chain they refer to. Entries after “also recorded” stand apart in the source; their conditions may differ.
What was measured:
WT-ABCG2 = target: T1, WT-ABCG2 (Homo sapiens, UniProt Q9UNQ0); test: Membrane thermal shift, MEF membrane vesicles, WT-ABCG2; format: binding; details: 10 μM of ligand, 60 min at 37°C, heated 3 min at 65°C
T1 sequence (Q9UNQ0 1-655): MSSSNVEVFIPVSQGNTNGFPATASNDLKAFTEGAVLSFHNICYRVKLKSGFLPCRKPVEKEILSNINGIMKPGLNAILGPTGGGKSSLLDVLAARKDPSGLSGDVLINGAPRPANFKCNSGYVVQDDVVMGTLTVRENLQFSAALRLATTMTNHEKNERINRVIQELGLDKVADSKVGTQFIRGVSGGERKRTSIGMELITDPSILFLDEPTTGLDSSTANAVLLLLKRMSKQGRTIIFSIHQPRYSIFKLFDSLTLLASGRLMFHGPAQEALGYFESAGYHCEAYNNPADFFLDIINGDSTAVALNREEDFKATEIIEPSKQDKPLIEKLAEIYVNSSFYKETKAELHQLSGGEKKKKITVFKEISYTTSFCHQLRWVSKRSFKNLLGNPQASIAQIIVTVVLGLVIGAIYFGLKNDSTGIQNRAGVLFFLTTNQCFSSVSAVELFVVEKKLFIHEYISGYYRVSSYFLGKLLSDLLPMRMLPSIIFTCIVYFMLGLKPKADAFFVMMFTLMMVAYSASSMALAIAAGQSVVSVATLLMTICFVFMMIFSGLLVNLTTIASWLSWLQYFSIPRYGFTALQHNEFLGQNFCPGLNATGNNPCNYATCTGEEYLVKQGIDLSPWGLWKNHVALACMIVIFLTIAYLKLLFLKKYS

F439W-ABCG2 [1] = target: T2, F439W-ABCG2 (Homo sapiens, UniProt Q9UNQ0, F439W); test: Membrane thermal shift, MEF membrane vesicles, F439W; format: binding; details: 10 μM of Hoechst 33342, 60 min at 37°C
T2 sequence (Q9UNQ0 1-655 F439W): T1 sequence (Q9UNQ0 1-655) with F439W

F439Y-ABCG2 [2] = target: T3, F439Y-ABCG2 (Homo sapiens, UniProt Q9UNQ0, F439Y); test: Membrane thermal shift, MEF membrane vesicles, F439Y; format: binding; details: 10 μM of Hoechst 33342, 60 min at 37°C
T3 sequence (Q9UNQ0 1-655 F439Y): T1 sequence (Q9UNQ0 1-655) with F439Y

F439A-ABCG2 = target: T4, F439A-ABCG2 (Homo sapiens, UniProt Q9UNQ0, F439A); test: Transport assay; format: cell-based; details: 0.5 μM substrate
T4 sequence (Q9UNQ0 1-655 F439A): T1 sequence (Q9UNQ0 1-655) with F439A

F439W-ABCG2 [3] = target: T2, F439W-ABCG2; test: Transport assay; format: cell-based; details: 0.5 μM of Hoechst 33342, ± 10 μM of Lapatinib, 120 min
F439Y-ABCG2 [4] = target: T3, F439Y-ABCG2; test: Transport assay; format: cell-based; details: 0.5 μM of Hoechst 33342, ± 10 μM of Lapatinib, 120 min
F439A = details: ref 11 (Manolaridis et al); cited from earlier work
N436A = details: ref 11 (Manolaridis et al); cited from earlier work

Row | Structure (SMILES) | thermal stabilization of WT-ABCG2 by ligand (WT-ABCG2) | thermal stabilization of F439W-ABCG2 by ligand (F439W-ABCG2 [1]) | thermal stabilization of F439Y-ABCG2 by ligand (F439Y-ABCG2 [2]) | transport of substrate by F439A-ABCG2 (F439A-ABCG2) | transport of substrate by F439W-ABCG2 (F439W-ABCG2 [3]) | transport of substrate by F439Y-ABCG2 (F439Y-ABCG2 [4]) | transport of substrate by F439A (F439A) | transport of substrate by N436A (N436A)
1 | CCOc1ccc(-c2nc3ccc(-c4nc5ccc(N6CCN(C)CC6)cc5[nH]4)cc3[nH]2)cc1 [Hoechst 33342] | stabilized | stabilized | stabilized | incapable of transporting; also recorded: no net ABCG2 mediated transport | transport activity similar to WT-ABCG2 | transport activity similar to WT-ABCG2 | – | –
2 | C[C@]12CC[C@@H]3c4ccc(OS(=O)(=O)O)cc4CC[C@H]3[C@@H]1CCC2=O [estrone-3-sulfate] | – | – | – | – | – | – | could not transport | incapable

From publication PMC8317467 (FASEB journal : official publication of the Federation of …, 2020)
